In brackets after ≈: the same amount, converted by molar mass. Activity calls are given as the source filed them. The rule behind the calls is not given here.
What was measured:
[1] = Inhibition of influenza A/PR/8/34(H1N1) virus sialidase after 10 mins by fluorometric assay; design: species or system Influenza A virus (A/Puerto Rico/8/1934(H1N1))
[2] = Inhibition of influenza A/Guizhou/54/89(H3N2) virus sialidase after 10 mins by fluorometric assay; design: species or system Influenza A virus (A/Guizhou/54/89(H3N2))
[3] = system: MDCK; assay: Cytotoxicity in influenza A/PR/8/34 virus infected MDCK cells after 3 days by MTT assay; assay type: cell-based, Canis lupus familiaris; details: dog, 72 h
[4] = Inhibition of influenza B/Ibaraki/2/85 virus sialidase after 10 mins by fluorometric assay; design: species or system Influenza B virus (B/Ibaraki/2/85)
[5] = system: Influenza A virus (A/Puerto Rico/8/1934(H1N1)); assay: Antiinfluenza virus activity in mouse infected with influenza virus A/PR/8/34(H1N1) assessed as survival rate at 0.5 mg/kg administered intranasally after 21 days; assay type: functional, BALB/c
[6] = system: Influenza A virus; assay: Antiinfluenza virus activity in mouse infected with influenza virus A/PR/8/34(H1N1) assessed as survival rate at 0.5 mg/kg administered intranasally after 10 days; assay type: functional, A/Puerto Rico/8/1934(H1N1)
[7] = system: Influenza A virus; assay: Inhibition of influenza virus A/PR/8/34(H1N1) proliferation on MDCK cells at 12.5 ug/mL; assay type: functional, organism-based; details: A/Puerto Rico/8/1934(H1N1)

COC(=O)[C@@]1(Oc2cc(O)c3c(=O)cc(-c4ccc(O)cc4)oc3c2-c2cc(-c3cc(=O)c4c(O)cc(OC)cc4o3)ccc2OC)C[C@H](OC(C)=O)[C@@H](NC(C)=O)[C@H]([C@H](OC(C)=O)[C@@H](COC(C)=O)OC(C)=O)O1 (stereo in doubt; 6R)
IC50 [1]: 79.2 µg/mL (≈ 76.2 µM)
IC50 [2]: > 10 µg/mL
Activity [3]: Non-toxic

COC(=O)[C@@]1(Oc2cc(O)c3c(=O)cc(-c4ccc(O)cc4)oc3c2-c2cc(-c3cc(=O)c4c(O)cc(OC)cc4o3)ccc2OC)C[C@H](OC(C)=O)[C@@H](NC(C)=O)[C@H]([C@H](OC(C)=O)[C@@H](COC(C)=O)OC(C)=O)O1 (stereo in doubt; 6S)
IC50 [1]: > 100 µg/mL
IC50 [4]: > 100 µg/mL
IC50 [2]: 1.1 µg/mL (≈ 1.06 µM)

COC(=O)[C@@]1(Oc2ccc(-c3cc(=O)c4c(O)cc(O[C@]5(C(=O)OC)C[C@H](OC(C)=O)[C@@H](NC(C)=O)[C@H]([C@H](OC(C)=O)[C@@H](COC(C)=O)OC(C)=O)O5)c(-c5cc(-c6cc(=O)c7c(O)cc(OC)cc7o6)ccc5OC)c4o3)cc2)C[C@H](OC(C)=O)[C@@H](NC(C)=O)[C@H]([C@H](OC(C)=O)[C@@H](COC(C)=O)OC(C)=O)O1 (stereo in doubt; 7R)
IC50 [2]: 1.35 µg/mL (≈ 0.892 µM)

COC(=O)[C@@]1(Oc2ccc(-c3cc(=O)c4c(O)cc(O[C@]5(C(=O)OC)C[C@H](OC(C)=O)[C@@H](NC(C)=O)[C@H]([C@H](OC(C)=O)[C@@H](COC(C)=O)OC(C)=O)O5)c(-c5cc(-c6cc(=O)c7c(O)cc(OC)cc7o6)ccc5OC)c4o3)cc2)C[C@H](OC(C)=O)[C@@H](NC(C)=O)[C@H]([C@H](OC(C)=O)[C@@H](COC(C)=O)OC(C)=O)O1 (stereo in doubt; 7S)
IC50 [1]: > 100 µg/mL
IC50 [4]: > 100 µg/mL
IC50 [2]: > 10 µg/mL
Activity [3]: Non-toxic

COc1cc(O)c2c(=O)cc(-c3ccc(OC)c(-c4c(O[C@]5(C(=O)O)C[C@H](O)[C@@H](NC(C)=O)[C@H]([C@H](O)[C@H](O)CO)O5)cc(O)c5c(=O)cc(-c6ccc(O)cc6)oc45)c3)oc2c1 (stereo in doubt; 8R) [listing 1 of 2 here]
Activity [5]: 62.5%
IC50 [1]: 5.5 µg/mL (≈ 6.41 µM)
IC50 [4]: 9.11 µg/mL (≈ 10.6 µM)
IC50 [2]: 0.82 µg/mL (≈ 0.956 µM)
Activity [6]: 75%

COc1cc(O)c2c(=O)cc(-c3ccc(OC)c(-c4c(O[C@]5(C(=O)O)C[C@H](O)[C@@H](NC(C)=O)[C@H]([C@H](O)[C@H](O)CO)O5)cc(O)c5c(=O)cc(-c6ccc(O)cc6)oc45)c3)oc2c1 (stereo in doubt; 8R) [listing 2 of 2 here]
Activity [7]: Active

COc1cc(O)c2c(=O)cc(-c3ccc(OC)c(-c4c(O[C@]5(C(=O)O)C[C@H](O)[C@@H](NC(C)=O)[C@H]([C@H](O)[C@H](O)CO)O5)cc(O)c5c(=O)cc(-c6ccc(O)cc6)oc45)c3)oc2c1 (stereo in doubt; 8S) [listing 1 of 2 here]
Activity [5]: 56%
IC50 [1]: 6.35 µg/mL (≈ 7.4 µM)
IC50 [4]: 8.64 µg/mL (≈ 10.1 µM)
IC50 [2]: 0.99 µg/mL (≈ 1.15 µM)
Activity [6]: 78%
Activity [3]: Non-toxic

COc1cc(O)c2c(=O)cc(-c3ccc(OC)c(-c4c(O[C@]5(C(=O)O)C[C@H](O)[C@@H](NC(C)=O)[C@H]([C@H](O)[C@H](O)CO)O5)cc(O)c5c(=O)cc(-c6ccc(O)cc6)oc45)c3)oc2c1 (stereo in doubt; 8S) [listing 2 of 2 here]
Activity [7]: Active

COc1cc(O)c2c(=O)cc(-c3ccc(OC)c(-c4c(O[C@]5(C(=O)O)C[C@H](O)[C@@H](NC(C)=O)[C@H]([C@H](O)[C@H](O)CO)O5)cc(O)c5c(=O)cc(-c6ccc(O[C@]7(C(=O)O)C[C@H](O)[C@@H](NC(C)=O)[C@H]([C@H](O)[C@H](O)CO)O7)cc6)oc45)c3)oc2c1 (stereo in doubt; 9R)
IC50 [1]: 6.61 µg/mL (≈ 5.75 µM)
IC50 [4]: 9.05 µg/mL (≈ 7.88 µM)
IC50 [2]: 6.57 µg/mL (≈ 5.72 µM)

COc1cc(O)c2c(=O)cc(-c3ccc(OC)c(-c4c(O[C@]5(C(=O)O)C[C@H](O)[C@@H](NC(C)=O)[C@H]([C@H](O)[C@H](O)CO)O5)cc(O)c5c(=O)cc(-c6ccc(O[C@]7(C(=O)O)C[C@H](O)[C@@H](NC(C)=O)[C@H]([C@H](O)[C@H](O)CO)O7)cc6)oc45)c3)oc2c1 (stereo in doubt; 9S)
IC50 [1]: 6.99 µg/mL (≈ 6.08 µM)
IC50 [4]: 9.34 µg/mL (≈ 8.13 µM)
IC50 [2]: 0.94 µg/mL (≈ 0.818 µM)
Activity [3]: Non-toxic

COc1c(O)cc(O)c2c(=O)cc(-c3ccc(O)cc3)oc12 [4'-HYDROXYWOGONIN]
IC50 [1]: 9.78 µg/mL (≈ 32.6 µM)
IC50 [4]: 6.58 µg/mL (≈ 21.9 µM)
IC50 [2]: 8.95 µg/mL (≈ 29.8 µM)

COc1cc(O)c2c(=O)cc(-c3ccc(OC)c(-c4c(O)cc(O)c5c(=O)cc(-c6ccc(O)cc6)oc45)c3)oc2c1 [GINKGETIN]
IC50 [1]: 55 µg/mL (≈ 97.1 µM)
IC50 [4]: > 100 µg/mL
IC50 [2]: 9.78 µg/mL (≈ 17.3 µM)
Activity [3]: Toxic
